From patent US8747811B2, “Perylenequinone derivatives and uses thereof” (Quest Pharmatech, Inc., priority 2005, dated 2014)

Columns and labels:
[1] = UV-visible absorption spectra in DMSO; assay type: physicochemical
Source text: The absorption spectra of compounds (4) and (5) recorded in DMSO are shown in FIG. 1 along with the parent compound (2). Based on the study of absorption spectra of hypocrellin B (2) (Diwu et al. Sinica Sol. B 18, 1993, 131), the shorter wavelength absorption bands are assigned to the π-π* transition, and the absorption bands at the longer wavelength is the relation to […] charge transfer (ICT) which may take on some active role in the photodynamic activity of the molecule. From FIG. 1, the absorption at the longer wavelengths of compounds (4) and (5) has enhanced, as compared to the parent hypocrellin B (2). The maximum absorption of compounds (4) and (5) is around 600-700 nm in DMSO which helps in tissue penetration, while the parent compound hypocrellin (2) has maximum absorption at 580 nm in DMSO. When an electron donating group like 3-dimethylaminopropylamine is introduced in the quinonoid molecule, its interaction with the adjacent carbonyl group enhances the red shift in the absorption spectra, thereby leading to an extended red shift spectral region (photodynamic window) which is important for PDT.

EMT-6 cells [2] = test: Light treatment (PDT), clonogenic assay in EMT-6 cells; assay type: cell-based, mouse; conditions: for cell killing ability: 0-20 μM drug, graded light doses, 635 nm; for cell death after light treatment: EMT-6 cells, clonogenic assay, with light; for cell survival: Five μM drug concentration with 2 J/cm^2 light treatment, 635 nm laser
Experimental: (§1) EMT-6 cells in log phase growth were plated onto 35 mm tissue culture dishes 24 hours prior to experimentation. Growth media was removed and replaced with media containing compounds (4) or (5) at the above doses—0, 2.5 μM, 5 μM and 20 μM (Initially, the drugs were dissolved in pure DMSO @ a concentration of 2 mM). They were diluted down to the appropriate concentrations in RPMI growth media. The plates were then kept at 37° C. for 3 hours in the dark and then the cells were washed 2 times in PBS and finally had 2 ml of RPMI added to each dish. Then, the dark toxicity samples were kept covered at room temperature for the equivalent time taken for light treatment of the other samples. Light treated samples were subjected to grades doses of light (0, 0.5, 1, 2.5 and 5 J/cm^2) from 635 nm laser with a fluency rate of 150 milli watts. The media was removed and the cells trypsinized and re-plated at 200 cells/60 mm dish in normal RPMI growth media. The cells were allowed to grow for 7 days and then stained with Methylene Blue and the surviving colonies counted.

EMT-6 cells [3] = test: Dark toxicity, clonogenic assay in EMT-6 cells; assay type: cell-based, mouse; conditions: no light
Experimental: EMT-6 cells in log phase growth were plated onto 35 mm dishes 24 hours prior to experimentation. Growth media was removed and replaced with media containing compounds (4) and (5) at the doses (0, 2.5 μM, 5 μM and 20 μM). The plates were then kept at 37° C. for 3 hours in the dark and then the cells were washed 2 times in PBS then trypsinized and re-plated at 200 cells/60 mm dish in normal RPMI growth media. The cells were allowed to grow for 7 days and then stained with Methylene Blue and the surviving colonies counted.
as §1, with “Light treated samples were subjected to grades doses of light (0, 0.5, 1, 2.5 and 5 J/cm^2) from 635 nm laser with a fluency rate of 150 milli watts. The media was removed and the cells trypsinized and re-plated at 200 cells/60 mm dish in normal RPMI growth media.” left out

normal mouse skin = test: PDT effect on normal mouse skin; assay type: in vivo
Source text: Likewise, the photosensitizer alone without light treatment was also ineffective.

[4] = Phase 1 clinical study, topical application to the back of patients with acne; assay type: in vivo, human; conditions: 10 patients with acne on the back
Source text: The primary objective of the study was to measure and quantify the fluorescence levels of ACP-compound 4 in sebaceous glands, epidermis and hair follicles at different time points after topical application. The study also monitored the safety of the drug product after topical administration. The study consisted of a group of 10 patients with acne on the back.

BT549 cells = test: Photodynamic activity, tritiated thymidine uptake in BT549 cells; assay type: cell-based; conditions: for activity in the absence of light treatment: no light; for cell death after light treatment: tritiated thymidine uptake, with light
Source text: The photodynamic activity of compound 4 has been studied in two cell lines cells by measuring cell death post treatment by tritiated thymidine uptake (in […] cells) and clonogenic assays (in EMT-6 cells).
The photodynamic activity of ACP-compound 5 was studied in two cell lines cells by measuring cell death post treatment by tritiated thymidine uptake (in BT549 cells) and clonogenic assays (in EMT-6 cells).

[5] = system: human (ex vivo) skin samples; test: PDT treated human (ex vivo) skin samples, histology
[6] = Fluorescence spectra in chloroform; assay type: physicochemical
Source text: The introduction of the extra cyclic ring in compound (5) have shown a new fluorescent band at longer wavelength (around 725 nm), because of the […] H-atom transfer process. The new florescent band is considered to be related to the ICT between the amino group and the […] carbonyl group.

EMT-6 mouse tumor model = test: PDT in EMT-6 mouse tumor model; assay type: in vivo; conditions: liposomal formulation (DPPC and cholesterol) combined with light treatment
Source text: Liposomal formulations of compound 5 for systemic delivery of the photosensitizer. The photosensitizer is formulated with a mixture of dipalmitoyl phosphatidylcholine (DPPC) and cholesterol and extruded through membrane of different pore size until the required size of liposomes was achieved.

Structure (SMILES): COc1c(O)c2c(=O)cc(OC)c3c4c(OC)cc(=O)c5c(O)c(NCCCN(C)C)c6c(c(c1C(C(C)=O)C(C)=C6)c23)c54 (stereo not shown) [Compound 4, 2-(N,N-dimethylaminopropyl)-amino-15-acetyl-3,10-dihydroxy-6,7,11-trimethoxy-14-methyl-15-H-cyclohepta(ghi)perylene-4,9-dione]
- absorption at the longer wavelengths as compared to the parent hypocrellin B (2) [1]: enhanced
- cell killing ability (EMT-6 cells [2]): dose dependent cell killing ability with increasing light and drug dose
- cell death after light treatment (EMT-6 cells [2]): significant cell death
- cell survival (EMT-6 cells [2]): 1 cell per 1000 plated
- activity in the absence of light treatment (EMT-6 cells [3]): No significant activity
- tissue damage (normal mouse skin; 70 J/cm^2, penetration for 3 to 5 hours): significant epidermal apoptosis
- tissue damage (normal mouse skin; 70 J/cm^2, penetration time of 1 or 2 hours, 7 days post treatment): mild injury to the epidermal cells
- tissue damage (normal mouse skin; 100 J/cm^2, 1 hour of penetration): only the epithelium and part of the fatty layer showed damage
- tissue damage (normal mouse skin; 100 J/cm^2, 2 hours of penetration): Apoptosis of epidermal cells, basal layer and hair follicle
- tissue damage (normal mouse skin; 100 J/cm^2, 3 hours of penetration): the whole tissue layer, including muscle layer showed significant damage
- tissue damage, photosensitizer alone (normal mouse skin; without light treatment): ineffective
- adverse events [4]: No adverse events have been observed
- activity in the absence of light treatment (BT549 cells): No significant activity
- cell death after light treatment (BT549 cells): significant cell death
- histological changes after PDT [5]: no histological changes up to two days post treatment but progressive necrotic/apoptotic changes thereafter

Structure (SMILES): COc1c(O)c2c(=O)cc(OC)c3c4c(OC)cc(=O)c5c6c(c7c(c(c1C(C(C)=O)C(C)=C7)c23)c54)NC1CCCCC1N6 (stereo not shown) [Compound 5, (2,3b)-Octahydroquinoxalin-yl-hypocrellin B derivative]
- absorption at the longer wavelengths as compared to the parent hypocrellin B (2) [1]: enhanced
- cell killing ability (EMT-6 cells [2]): dose dependent cell killing ability with increasing light and drug dose
- cell death after light treatment (EMT-6 cells [2]): significant cell death
- cell survival (EMT-6 cells [2]): 1 cell per 1000 plated
- activity in the absence of light treatment (EMT-6 cells [3]): No significant activity
- new fluorescent band at longer wavelength [6]: around 725 nm
- activity in the absence of light treatment (BT549 cells): No significant activity
- cell death after light treatment (BT549 cells): significant cell death
- tumor response (EMT-6 mouse tumor model): Complete cure of the implanted tumor

Structure (SMILES): COc1c2c3c4c(c(OC)c(=O)c5c(O)cc(OC)c(c6c(OC)cc(O)c(c1=O)c63)c54)C(C(C)=O)=C(C)C2 [hypocrellin (2), hypocrellin B, reference compound]
- maximum absorption [1]: 580 nm
